What follows are substances tested against T1, HLA-A*0201 (Homo sapiens, UniProt P04439, D140Y/D185E/D98H/E176V/E277Q/G131W/G231S/I119V/I121R/I166T/I218V/L300P/L318F/N151K/N90K/P208A/P217A/Q86G/Q94H/R138H/R169H/T345S). Details: not given.
T1 construct: Soluble MHC was dissolved in PBS containing 0.5 mg/ml bovine γ-globulin; made in house
Assay type: binding

Substance | FP binding score, percentage inhibition of tracer peptide binding, 4h [%] | FP binding score, percentage inhibition of tracer peptide binding, 24h [%]
[OM-HS][2-AOC]LSTVLGV [N91] | 91 | 87
[CSET][2-AOC]YSDFHFI [F118] | 95 | 93

What follows are substances tested against T2, HLA-A*0301 (Homo sapiens, UniProt P04439). Details: not given.
T2 construct: Soluble MHC was dissolved in PBS containing 0.5 mg/ml bovine γ-globulin; made in house
Assay type: binding

Substance | FP binding score, percentage inhibition of tracer peptide binding, 4h [%] | FP binding score, percentage inhibition of tracer peptide binding, 24h [%]
S[NVA]SFGG[2-FUR]TK [S76] | 75 | 91
RMVLSAFDER [R WT, reference compound] | 18 | 6
I[AHA][SOME]GSVAHK [I85] | 69 | 88
[2-AOC][NLE]RGSVAHK [I60] | 72 | 91
R[AHA]VLSAFDEK [R2] | 58 | 67
S[NVA]SFGG[2-AOC]TK [S70] | 90 | 96
S[NVA]SFGG[CpALA]TK [S74] | 78 | 94
S[NVA][CpALA]FGGFTK [S96] | 76 | 91
RMVLSAF[CpALA]ER [R42] | 65 | 73
R[NVA]VLSAF[SOME]ER [R70] | 64 | 74
I[AHA][CHA]GSVAHK [I89] | 75 | 91
S[NVA]SFGGF[TOME]K [S92] | 80 | 92
RMVLSAF[4-FPHE]ER [R40] | 63 | 57
S[NVA][4-FPHE]FGGFTK [S95] | 80 | 93
RMVLSAF[ORN]ER [R41] | 65 | 63
S[NVA]SFGG[NLE]TK [S68] | 79 | 93
R[NVA]VLSAFDKR [R59] | 62 | 68
S[NVA]SFGG[NVA]TK [S69] | 72 | 91
I[AHA][CSME]GSVAHK [I86] | 71 | 89
ILRGSVAHK [I WT, reference compound] | 66 | 87
I[AHA]RGSV[NLE]HK [I74] | 77 | 92

Substance | FP binding score, percentage inhibition of tracer peptide binding, 4h [%] | FP binding score, percentage inhibition of tracer peptide binding, 24h [%]
R[AHA]VLSAF[SOME]ER [R66] | 63 | 63
IL[4-FPHE]GSVAHK [I94] | 70 | 89
SFSFGGFTK [S WT, reference compound] | 67 | 58
[2-AOC][AHA]RGSVAHK [I17] | 61 | 89
I[OrnN2]RGSVAHK [I49] | 71 | 90
I[AHA]RGSV[CpALA]HK [I77] | 71 | 89
S[NVA]SFGG[4-FPHE]TK [S72] | 79 | 93
S[NVA]SFGG[PRG]TK [S71] | 70 | 90
[CSME][AHA]RGSVAHK [I61] | 71 | 90
R[NVA]VLSAF[2-AOC]ER [R71] | 71 | 82
[AHA][NLE]RGSVAHK [I53] | 73 | 91
RMVLSAF[2-AOC]ER [R38] | 69 | 75
RMVLSAF[CSET]ER [R37] | 60 | 60
R[AHA]VLSAF[2-AOC]ER [R67] | 74 | 78
SF[4-FPHE]FGGFTK [S84] | 82 | 95
ILRGSV[NLE]HK [I63] | 74 | 89
R[NVA]VLSAF[4-FPHE]ER [R72] | 68 | 72
RMVLSAF[NLE]ER [R36] | 66 | 73
R[AHA]VLSAF[4-FPHE]ER [R68] | 67 | 64
I[AHA][4-FPHE]GSVAHK [I87] | 73 | 91
S[NVA]RFGGFTK [S53] | 80 | 93

Substance | FP binding score, percentage inhibition of tracer peptide binding, 4h [%] | FP binding score, percentage inhibition of tracer peptide binding, 24h [%]
I[AHA]RGSV[2-FUR]HK [I79] | 77 | 90
S[AHA]RFGGFTK [S54] | 80 | 92
I[AHA][PRG]GSVAHK [I84] | 71 | 89
S[NVA][CSME]FGGFTK [S93] | 80 | 93
I[AHA][CpALA]GSVAHK [I83] | 70 | 89
I[AHA][NLE]GSVAHK [I58] | 68 | 89
S[NVA][AHA]FGGFTK [S52] | 80 | 93
RM[OrnN2]LSAFDER [R83] | 71 | 72
I[AHA]RGSV[CSET]HK [I73] | 74 | 90
ILRGSV[2-AOC]HK [I65] | 87 | 94
S[NVA]SFGGF[AHA]K [S90] | 78 | 90
RM[2-AOC]LSAFDER [R50] | 70 | 66
S[NVA][NLE]FGGFTK [S94] | 80 | 93
RMVLSAF[AHA]ER [R81] | 71 | 76
S[NVA]SFGG[BPG]TK [S73] | 73 | 91
S[NVA][2-AOC]FGGFTK [S50] | 83 | 94
S[NVA]SFGGFHK [S56] | 78 | 91
RMVLSAF[PRG]ER [R39] | 62 | 62
RM[4-FPHE]LSAFDER [R55] | 70 | 65
RMVLSAFDEK [R4] | 61 | 69
I[AHA][2-AOC]GSVAHK [I59] | 71 | 91

Same assay, conditions: after 4h

Substance | FP binding score HLA-A*0301, percentage inhibition, 4h [%]
R[AHA]VLSAF[SOME]ER [R66] | 63
RMVLSAF[CSET]ER [R37] | 60
RMVLSAF[PRG]ER [R39] | 62

Same assay, conditions: after 24h

Substance | FP binding score HLA-A*0301, percentage inhibition, 24h [%]
R[AHA]VLSAF[SOME]ER [R66] | 63
RMVLSAF[CSET]ER [R37] | 60
RMVLSAF[PRG]ER [R39] | 62

These substances were tested on splenocytes of WT-vaccinated HLA-A2 tg mice. Details: not given.
Assay type: cell-based, mouse

Substance | Mouse splenocytes (ex vivo assay), Average
[OM-HS][2-AOC]LSTVLGV [N91] | 344
[CSET][2-AOC]YSDFHFI [F118] | 81

Reference: PMC4917206, “Chemical Modification of Influenza CD8+ T-Cell Epitopes Enhances Their Immunogenicity Regardless of Immunodominance” (PLoS ONE, 2016)
